Results reported in paper PMC7824209, “Bioactive Bis(indole) Alkaloids from a Spongosorites sp. Sponge” (Marine Drugs, 2020).
Values after ≈ are worked out from the molar mass of the structure shown. Like-named read-outs stand apart in the source and are kept apart here.

Experiments:
[1] = target: T1, recombinant SrtA from S. aureus ATCC6538p (Staphylococcus aureus, UniProt Q2FV99); test: SrtA inhibition assay (fluorescence, dabcyl-LPETG-edans cleavage); format: biochemical
T1 construct: made in house; host or cells: Escherichia coli
From the text: The same bioassays were pursued with the new compounds and the known congeners, with a particular emphasis on SrtA inhibition. The rationale of SrtA inhibition is that this transpeptidase decorates the surfaces of Gram-positive bacteria with a diverse array of proteins that enable microbes to effectively interact with their environment, and it is not required for bacterial growth or viability. It is thus considered a promising target for the development of anti-virulence drugs aimed at interfering with important virulence mechanisms such as adhesion to host tissues. To assess the SrtA inhibitory activity of compounds 1–14, recombinant SrtA derived from S. aureus ATCC6538p was purified from Escherichia coli extracts using metal chelate-affinity chromatography. The enzyme activity was determined from the fluorescence intensity upon cleavage of a peptide substrate containing the LPETG motif.
Before evaluating the SrtA inhibitory activity of the test compounds, recombinant SrtA from S. aureus ATCC6538p was prepared according to methods described in a previous paper. The SrtA inhibitory activity of the test compounds was determined according to previously described methods with minor modifications. The reaction was carried out with 100 μL buffer (50 mM Tris-HCl, 5 mM CaCl2, and 150 mM NaCl, pH 7.5), 7.5 µM synthetic peptide dabcyl-LPETG-edans (AnaSpec, Inc., Fremont, CA, USA), 7.5 µM purified SrtA, and test samples at various concentrations. […] The SrtA inhibition assay was conducted at 37 °C for 1 h, and inhibition was quantified fluorometrically using a microplate reader (FLx800, BioTek Instruments, Winooski, VT, USA) at excitation and emission wavelengths of 350 and 495 nm, respectively. Berberine chloride and triphasiol were used as reference inhibitors of SrtA.

[2] = system: Escherichia coli ATCC25922; test: Antibacterial activity MIC; format: cell-based; conditions: Gram-negative; for MIC: Escherichia coli, read-out: Antibacterial Activity MIC, E. coli
[3] = system: Salmonella enterica ATCC14028; test: Antibacterial activity MIC; format: cell-based; conditions: ATCC14028, read-out: Antibacterial Activity MIC, Salmonella enterica
S. aureus strain Newman = test: Antibacterial activity MIC; format: cell-based; conditions: Staphylococcus aureus, read-out: Antibacterial Activity MIC, S. aureus
[4] = system: Enterococcus faecium ATCC19434; test: Antibacterial activity MIC; format: cell-based; conditions: ATCC19434, read-out: Antibacterial Activity MIC, Enterococcus faecium
A549 cell line = test: MTT cytotoxicity assay; format: cell-based; conditions: Homo sapiens
Description: (§1) An MTT assay was performed as previously described to determine the cytotoxicity against A549 and K562 cell lines. These cancer cell lines were purchased from the Korean Cell Line Bank (KCLB), Seoul, Republic of Korea.

K562 cell line = test: MTT cytotoxicity assay; format: cell-based; conditions: Homo sapiens
Description: as §1

[5] = system: Klebsiella pneumoniae ATCC10031; test: Antibacterial activity MIC; format: cell-based; conditions: ATCC10031, read-out: Antibacterial Activity MIC, Klebsiella pneumonia
[6] = system: Candida albicans ATCC10231; test: Antifungal activity MIC; format: cell-based
[7] = system: Trichophyton rubrum NBRC9185; test: Antifungal activity MIC; format: cell-based
[8] = system: Enterococcus faecalis ATCC19433; test: Antibacterial activity MIC; format: cell-based; conditions: ATCC19433, read-out: Antibacterial Activity MIC, Enterococcus faecalis
[9] = system: Aspergillus fumigatus HIC6094; test: Antifungal activity MIC; format: cell-based
[10] = system: Trichophyton mentagrophytes IFM40996; test: Antifungal activity MIC; format: cell-based
[11] = MTT assay, A549, read-out: IC50 A549
[12] = MTT assay, K562, read-out: IC50 K562

T1 sequence (Q2FV99 whole entry): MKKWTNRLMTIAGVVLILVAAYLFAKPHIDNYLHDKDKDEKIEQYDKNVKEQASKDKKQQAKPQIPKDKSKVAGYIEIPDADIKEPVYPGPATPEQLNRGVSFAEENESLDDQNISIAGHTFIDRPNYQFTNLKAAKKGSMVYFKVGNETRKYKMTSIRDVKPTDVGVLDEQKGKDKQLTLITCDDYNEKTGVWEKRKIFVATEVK

| SMILES | IC50 [1] [µM] | MIC [2] [µg/mL] | MIC ([3]; Gram-negative) [µg/mL] | MIC (S. aureus strain Newman; Gram-positive, strain Newman) [µg/mL] | MIC ([4]; Gram-positive) [µg/mL] | IC50 (A549 cell line; [11]) [µM] | IC50 (K562 cell line; [12]) [µM] | MIC ([5]; Gram-negative) [µg/mL] | MIC [6] [µg/mL] | MIC [7] [µg/mL] | MIC ([8]; Gram-positive) [µg/mL] | MIC [9] [µg/mL] | MIC [10] [µg/mL] | other results |
| --- | --- | --- | --- | --- | --- | --- | --- | --- | --- | --- | --- | --- | --- | --- |
| O=C(c1ncc(-c2c[nH]c3cc(Br)ccc23)[nH]1)c1c[nH]c2ccccc12 [Compound 9, bromodeoxytopsentin] | 34 |  |  |  |  |  |  |  |  |  |  |  |  |  |
| O=C(c1nc(-c2c[nH]c3cc(Br)ccc23)c[nH]1)c1c[nH]c2cc(O)ccc12 [Compound 10, bromotopsentin] | 53.2 | > 128 | 16 (≈ 38 µM) | 8 (≈ 19 µM) | 16 (≈ 38 µM) | 38.9 | 43.2 | 64 (≈ 152 µM) | > 128 | > 128 | 32 (≈ 76 µM) | > 128 | > 128 | Antibacterial Activity MIC, E. coli [2]: >128 µg/mL |
| O=C1NC[C@H](c2c[nH]c3cc(Br)ccc23)N[C@H]1c1c[nH]c2cc(Br)ccc12 [Compound 12, (3S, 5R)-6-dibromo-trans-3,4-dihydrohamacanthin B] | > 263 | > 128 |  |  |  |  |  |  | > 128 | > 128 |  | > 128 | > 128 | Antibacterial Activity MIC, E. coli [2]: >128 µg/mL; MIC [3]: 8 µg/mL (≈ 16.4 µM); MIC (S. aureus strain Newman; NEWMAN): 8 µg/mL (≈ 16.4 µM); MIC [4]: > 128 µg/mL; IC50 (A549 cell line; A549, read-out: IC50 A549): 34.3 µM; IC50 (K562 cell line; K562, read-out: IC50 K562): 9.7 µM; MIC [5]: 8 µg/mL (≈ 16.4 µM); MIC [8]: 16 µg/mL (≈ 32.8 µM) |
| COC(=O)c1c[nH]c2ccccc12 [Compound 13, 3-carbomethoxyindole] | 164 | > 128 | > 128 | 128 (≈ 731 µM) | > 128 | 59.2 | > 100 | > 128 | > 128 | > 128 | > 128 | > 128 | > 128 |  |
| COC(=O)c1c[nH]c2cc(O)ccc12 [Compound 14, 6-hydroxy-3-carbomethoxyindole] | 191 | > 128 | > 128 | 128 (≈ 670 µM) | > 128 | 66.8 | > 100 | > 128 | > 128 | > 128 | > 128 | > 128 | > 128 |  |
| CC1(C)S[C@@H]2[C@H](NC(=O)[C@H](N)c3ccccc3)C(=O)N2[C@H]1C(=O)O [ampicillin, reference compound] |  | 8 (≈ 22.9 µM) | 0.25 (≈ 0.715 µM) | 0.13 (≈ 0.372 µM) | 1 (≈ 2.86 µM) |  |  |  |  |  | 0.5 (≈ 1.43 µM) |  |  |  |
| COc1ccc2cc3[n+](cc2c1OC)CCc1cc2c(cc1-3)OCO2 [berberine chloride, reference compound] | 87.4 |  |  |  |  |  |  |  |  |  |  |  |  |  |
| COc1cccc2c1C(=O)c1c(O)c3c(c(O)c1C2=O)C[C@@](O)(C(=O)CO)C[C@@H]3O[C@H]1C[C@H](N)[C@H](O)[C@H](C)O1 [doxorubicin, reference compound] |  |  |  |  |  | 0.64 | 0.92 |  |  |  |  |  |  |  |
| CN(C)[C@@H]1C(O)=C(C(N)=O)C(=O)[C@@]2(O)C(O)=C3C(=O)c4c(O)cccc4[C@@](C)(O)[C@H]3C[C@@H]12 [tetracycline, reference compound] |  |  |  |  |  |  |  | 0.25 (≈ 0.563 µM) |  |  |  |  |  |  |
| CC(C)C(=O)Cc1c(OCC(O)C(C)(C)O)ccc2ccc(=O)oc12 (centres unmarked) [triphasiol, reference compound] |  |  |  |  |  |  |  |  |  |  |  |  |  | IC50 ([1]; 7.5 µM SrtA, 7.5 µM dabcyl-LPETG-edans, 37 °C, 1 h, pH 7.5, read-out: IC50 Srt A): 37.9 µM |
